We go through five compounds from ChEMBL document CHEMBL1152118, “Synthesis and pharmacological profile of two novel heterocyclic chromanols, CP-80,798 and CP-85,958, as potent LTD4 receptor antagonists” (Bioorg Med Chem Lett, 1995).

Assay [1] deals with T1, Polyunsaturated fatty acid 5-lipoxygenase (Rattus norvegicus, UniProt P12527).
T1 sequence (P12527 whole entry): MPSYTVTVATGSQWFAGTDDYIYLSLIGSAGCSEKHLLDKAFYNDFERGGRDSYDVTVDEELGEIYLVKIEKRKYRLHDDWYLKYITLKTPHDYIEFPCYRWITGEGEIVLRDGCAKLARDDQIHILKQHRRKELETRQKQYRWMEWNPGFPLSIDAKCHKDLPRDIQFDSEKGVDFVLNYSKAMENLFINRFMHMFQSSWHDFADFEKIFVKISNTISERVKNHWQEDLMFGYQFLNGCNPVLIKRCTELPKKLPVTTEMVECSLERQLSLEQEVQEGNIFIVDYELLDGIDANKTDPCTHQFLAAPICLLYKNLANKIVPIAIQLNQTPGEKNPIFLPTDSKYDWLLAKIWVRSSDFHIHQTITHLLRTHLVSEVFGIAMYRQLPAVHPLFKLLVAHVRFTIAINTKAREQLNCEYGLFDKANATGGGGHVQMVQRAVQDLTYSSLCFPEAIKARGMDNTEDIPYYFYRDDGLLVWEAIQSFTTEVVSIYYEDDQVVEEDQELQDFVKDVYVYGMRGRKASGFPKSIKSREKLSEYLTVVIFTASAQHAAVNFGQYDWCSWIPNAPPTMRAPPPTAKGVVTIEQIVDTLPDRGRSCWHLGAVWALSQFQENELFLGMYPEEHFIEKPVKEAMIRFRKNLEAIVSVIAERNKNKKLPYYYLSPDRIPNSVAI
Briefly: Inhibition of 5-Lipoxygenase (5-LO) in rat basophilic leukemia cells. It counts as cell-based, RBL-1.

The test system of assay [2] is Cavia porcellus. Briefly: Inhibitory activity against LTD4 challenged pulmonary function test by oral administration. It counts as functional.
Assay [3] has as its system Cavia porcellus. The assay can be described thus: Inhibitory activity against LTD4 challenged pulmonary function test by oral administration (2 hr preantigen). Format: functional.
The test system of assay [4] is Cavia porcellus. Briefly: Dose required to block the airway obstruction induced by aerosolized antigen by oral administration. It counts as functional.
The target of assay [5] is T2, Cysteinyl leukotriene receptor 1 (Cavia porcellus, UniProt Q2NNR5).
T2 sequence (Q2NNR5 whole entry): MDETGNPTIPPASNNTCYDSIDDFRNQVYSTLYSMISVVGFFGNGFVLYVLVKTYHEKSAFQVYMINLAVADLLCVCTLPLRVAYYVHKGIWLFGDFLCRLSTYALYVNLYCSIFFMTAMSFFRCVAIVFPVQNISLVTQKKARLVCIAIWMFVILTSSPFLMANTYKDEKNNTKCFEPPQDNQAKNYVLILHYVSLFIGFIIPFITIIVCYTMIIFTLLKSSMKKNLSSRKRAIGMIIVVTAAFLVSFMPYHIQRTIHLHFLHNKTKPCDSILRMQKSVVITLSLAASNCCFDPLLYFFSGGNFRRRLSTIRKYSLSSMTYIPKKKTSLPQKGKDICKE
The assay can be described thus: Inhibition of [3H]LTD4 binding to LTD4 receptor in guinea pig lung membranes. It counts as cell membranes, Membrane.

By IC50 is commonly meant the midpoint of a concentration-inhibition curve. By ED50 is commonly meant the midpoint of the dose-response relation. Read a low ED50 as an effect at a small dose. A word on the Ki: it is the dissociation constant of the complex between target and ligand, obtained from inhibition or displacement. Lower therefore signals a stronger hold on the target.

Regarding `O[C@@H]1c2cc(OCc3ccc4ccccc4n3)ccc2OC[C@@H]1Cc1cccnc1`, the IC50 in assay [1] is 1.9 µM. For the same compound, the 50% effective dose (ED50) in the assay with Cavia porcellus [2] worked out at 3 mg/kg; with Cavia porcellus [3] it was 20 mg/kg; with Cavia porcellus [4], 16 mg/kg. In assay [5], this compound returned a Ki of 0.65 µM.

With `O[C@@H]1c2cc(OCc3ccc4ccccc4n3)ccc2CC[C@H]1Cc1ccccc1`, in assay [5], the Ki is 1.5 µM.

`CCCCC1CCc2ccc(OCc3ccc4ccccc4n3)cc2C1O` (stereo not drawn) had a Ki in assay [5] of 6.8 µM.

With `O=C(O)c1cccc(C[C@@H]2COc3ccc(OCc4nc5cc(F)ccc5s4)cc3[C@@H]2O)c1`, the IC50 in assay [1] was determined as 8.1 µM. In addition, the ED50 amounted to 0.49 mg/kg with Cavia porcellus [2], 0.43 mg/kg with Cavia porcellus [3] and 10.8 mg/kg in the assay on Cavia porcellus [4]. The same compound came in with a Ki in assay [5] of 24 µM.

In assay [5], `CCCCCC(O)c1cccc(OCc2ccc3ccccc3n2)c1` (stereo not drawn) [REV-5901] gave a Ki of 8 µM.
